Consider 67 molecules from PubChem BioAssay AID790 (SRMLSC, 2007).

The term IC50 denotes the concentration that inhibits the measured activity by half.

SMILES strings stand for the structures. Activity calls are given as the source filed them. How the calls were made is not given here. A value given as a limit tells only on which side of the number the result lay.

In assay [1] the test system is S. cerevisiae vps1Δ mutant growth inhibition. As to the kind of experiment: vps1Δ single mutant yeast growth suppression – S. cerevisiae, background strain comparison, dose response (AID 790).
Assay in assay [2]: as above
The conditions noted are these: S. cerevisiae vps1Δ mutant growth inhibition; measured here: background strain growth inhibition.

Take `CCC(C)c1ccc(OCCCCN2CCOCC2)cc1` (centres undefined): the IC50 in assay [1] is > 10 µM (inactive); in assay [2], greater than 10 µM.

As to `CCc1ccc(N(C(=O)c2csnn2)C(C(=O)NC(C)(C)C)c2ccncc2)cc1` (centres undefined), the IC50 in assay [1] is > 10 µM (inactive); in assay [2], greater than 10 µM.

For the molecule `CCN(CC)c1ccc(-c2nc3cnccc3n2C)cc1`, the values for the IC50 in assay [1] and in assay [2] were > 10 µM (inactive) and greater than 10 µM, respectively.

Regarding `CCOc1ccc(NC(=O)C/C(N)=N/O)cc1`, the figures for the IC50 in assay [1] and in assay [2] were > 10 µM (inactive) and greater than 10 µM, respectively.

Consider `CCOC(=O)C(C)Oc1ccc2c(C)cc(=O)oc2c1C(C)=O` (centres undefined), for which the figures for the IC50 in assay [1] and in assay [2] were > 10 µM (inactive) and greater than 10 µM, respectively.

As for `COc1ccc(Nc2nc(N)nc(CSc3nnc(N)s3)n2)cc1`, the IC50 is > 10 µM (inactive) in assay [1] and greater than 10 µM in assay [2].

As to `COc1cccc(C(=O)N2CCN(C3CCC(c4ccccc4)CC3)CC2)c1OC` (centres undefined), the IC50 was 23.3 µM in assay [1] and 23.9 µM in assay [2].

Regarding `O=c1c2cccc3c2c(nn1CN1CCOCC1)-c1ccccc1-3`, the IC50 in assay [1] is > 10 µM (inactive); in assay [2] it was greater than 10 µM.

In the case of `Cc1cc(O)c(/C=N/Nc2ccc(Cl)cc2)c(=O)o1`, the IC50 is 5.43 µM (inactive) in assay [1] and 4.69 µM in assay [2].

With `O=C(Nc1ccccc1)C1=C(O)CC(c2ccco2)CC1=Nc1ccccc1` (centres undefined), the IC50 in assay [1] was > 10 µM (inactive); in assay [2], greater than 10 µM.

`Cc1cccc2cc(C#N)c(NCCCn3ccnc3)nc12`: the IC50 in assay [1] was > 10 µM (inactive); in assay [2], greater than 10 µM.

As for `c1ccc2c(c1)oc1c(Nc3ccc(CN4CCOCC4)cc3)ncnc12`, the values for the IC50 in assay [1] and in assay [2] were > 10 µM (inactive) and greater than 10 µM, respectively.

Consider `COC(=O)c1ccc(NC(=O)c2cn(-c3ccccc3)nc2-c2ccncc2)cc1`, for which the IC50 is > 10 µM (inactive) in assay [1] and greater than 10 µM in assay [2].

With `Cc1ccc(S(=O)(=O)N2CCN(C3CCN(Cc4ccccc4)CC3)CC2)cc1`, the IC50 is > 10 µM (inactive) in assay [1] and greater than 10 µM in assay [2].

With `Cc1cc(Cl)cc(C)c1OCCCCN1CCOCC1`, the results for the IC50 in assay [1] and in assay [2] were > 10 µM (inactive) and greater than 10 µM, respectively.

As to `COc1ccc2c(c1)C(C)=CC(C)(C)N2C(=O)CSc1nnc(-c2ccc(C)cc2)o1`, the results for the IC50 in assay [1] and in assay [2] were > 10 µM (inactive) and greater than 10 µM, respectively.

On to `O=C(Nc1cccc(Cl)c1)N1CCN(C/C=C/c2ccccc2)CC1`, for which the IC50 is > 10 µM (inactive) in assay [1] and greater than 10 µM in assay [2].

Take `Clc1ccc(-c2n[nH]c3c2CCC3)cc1Cl`: the half-maximal inhibitory concentration (IC50) in assay [1] is 1.07 µM; in assay [2] it was 1.81 µM.

In the case of `O=C(Nc1nnc(-c2ccc3c(c2)CCCC3)o1)c1ccccc1Cl`, the IC50 was 1.58 µM in assay [1] and 10.7 µM in assay [2].

In the case of `CC(C)Cc1[nH]c(=O)c(C#N)c2c1CCC2`, the IC50 in assay [1] was > 10 µM (inactive); in assay [2] it was greater than 10 µM.

In the case of `Cc1cc(C)n2nc(C(=O)NCc3ccccc3)cc2n1`, the IC50 in assay [1] was > 10 µM (inactive); in assay [2] it was greater than 10 µM.

With `COCCCn1c2nc3ccccc3nc2c2c(=O)n(-c3ccccc3OC)cnc21`, the IC50 is > 10 µM (inactive) in assay [1] and greater than 10 µM in assay [2].

For the molecule `Cc1cccc(-c2nnc(-c3cccc(NC(=O)Cc4cccs4)c3)o2)c1`, the IC50 in assay [1] was > 10 µM (inactive); in assay [2], 15.2 µM.

Regarding `NC(=O)c1c(NC(=O)CN2C(=O)CCC2=O)sc2c1CCCCC2`, the IC50 was > 10 µM (inactive) in assay [1] and greater than 10 µM in assay [2].

For the molecule `Cc1ccc(S(=O)(=O)c2c(C)nn(C(C)(C)C)c2OC(=O)c2ccc(Br)o2)cc1`, the IC50 in assay [1] was > 10 µM (inactive); in assay [2] it was greater than 10 µM.

`C=CCc1ccc(OCC(O)CN2CCC(Cc3ccccc3)CC2)c(OC)c1` (centres undefined): the IC50 in assay [1] is 19.4 µM (inactive); in assay [2] it was 19.1 µM.

In the case of `N#Cc1nc(COc2ccc(-c3ccccc3)cc2)oc1NCCCN1CCOCC1`, the figures for the IC50 in assay [1] and in assay [2] were 21.4 µM (inactive) and 15.4 µM, respectively.

As for `Cc1ccc(N2CCN(S(=O)(=O)N3CCCCCC3)CC2)cc1Cl`, the IC50 was > 10 µM (inactive) in assay [1] and greater than 10 µM in assay [2].

For `O=S(=O)(NCC(c1cccnc1)N1CCN(c2ccccc2)CC1)c1cccs1` (centres undefined), the half-inhibitory concentration (IC50) in assay [1] is 20.5 µM; in assay [2], greater than 10 µM.

As to `O=[N+]([O-])c1ccc(N2CCN(S(=O)(=O)c3ccc(Cl)cc3)CC2)cc1NCc1cccnc1`, the figures for the IC50 in assay [1] and in assay [2] were > 10 µM (inactive) and greater than 10 µM, respectively.

On to `Cc1ccc(/C=N/n2cnc3sc(-c4ccccc4)cc3c2=O)o1`, for which the IC50 was > 10 µM (inactive) in assay [1] and greater than 10 µM in assay [2].

In the case of `CCc1cc2c(=O)c(Oc3ccccc3F)c(C)oc2c(CN(C)C)c1O`, the IC50 in assay [1] is > 10 µM (inactive); in assay [2] it was greater than 10 µM.

`Cc1cc2ncn(CC(O)COc3cccc(C(=O)O)c3)c2cc1C` (centres undefined): the IC50 was > 10 µM (inactive) in assay [1] and greater than 10 µM in assay [2].

For `COc1ccc(CN(C(=O)Cc2cccs2)C(C(=O)NC2CCCC2)c2ccncc2)cc1` (centres undefined), the IC50 is > 10 µM (inactive) in assay [1] and greater than 10 µM in assay [2].

Regarding `CCC(OC(=O)C(NC(=O)c1ccccc1)c1ccccc1)C(=O)Nc1cc(C)on1` (centres undefined), the IC50 was > 10 µM (inactive) in assay [1] and greater than 10 µM in assay [2].

With `CS(=O)(=O)N1CCC(C(=O)NCCN2CCN(Cc3ccccc3)CC2)CC1`, the IC50 is > 10 µM (inactive) in assay [1] and greater than 10 µM in assay [2].

With `O=C(OCn1ncc(Cl)c(Cl)c1=O)c1ccccc1Cl`, the half-inhibitory concentration (IC50) in assay [1] was 5.41 µM; in assay [2] it was 16.6 µM.

With `COc1ccccc1N1CCN(C2CCN(C(=O)c3cc(OC)c(OC)c(OC)c3)CC2)CC1`, the IC50 in assay [1] is > 10 µM (inactive); in assay [2] it was greater than 10 µM.

For `Cc1cc(C)nc(N/N=C/C(Cl)=C/c2ccccc2)n1`, the results for the IC50 in assay [1] and in assay [2] were > 10 µM (inactive) and greater than 10 µM, respectively.

As to `CN1CCN(CCCNC(=O)Cn2nc(-c3ccccc3)ccc2=O)CC1`, the IC50 in assay [1] was > 10 µM (inactive); in assay [2] it was greater than 10 µM.

Consider `COc1ccc(NC(=O)N(C2CCCCC2)C(C)c2cccnc2)c(OC)c1` (centres undefined), for which the IC50 was 16.5 µM in assay [1] and 16.7 µM in assay [2].

Take `Clc1ccc(-c2n[nH]c3c2CCC3)c(Cl)c1`: the values for the 50% inhibitory concentration (IC50) in assay [1] and in assay [2] were 0.219 µM and 0.518 µM, respectively.

As to `CCOC(=O)N1CCN(c2ccc(S(=O)(=O)N(Cc3ccccc3)Cc3ccccc3)cn2)CC1`, the IC50 is > 10 µM (inactive) in assay [1] and greater than 10 µM in assay [2].

In the case of `Cc1nnc(-c2cccc(Br)c2)c2cn(-c3ccccc3)nc12`, the IC50 was > 10 µM (inactive) in assay [1] and greater than 10 µM in assay [2].

On to `O=C(NCc1ccc2c(c1)OCO2)C1CCCN1C(=O)Nc1ccccc1` (centres undefined), for which the IC50 in assay [1] was > 10 µM (inactive); in assay [2], greater than 10 µM.

`Clc1ccc(Cn2nnc(-c3ccc(CN4CCOCC4)cc3)n2)cc1`: the IC50 in assay [1] was > 10 µM (inactive); in assay [2], greater than 10 µM.

Take `O=C(NCc1ccc2c(c1)OCO2)c1ccc(CS(=O)(=O)c2cccc(C(F)(F)F)c2)o1`: the IC50 in assay [1] is > 10 µM (inactive); in assay [2] it was greater than 10 µM.

For the molecule `COc1cccc(OCCCCN2CC(C)OC(C)C2)c1` (centres undefined), the IC50 was > 10 µM (inactive) in assay [1] and greater than 10 µM in assay [2].

As for `Cc1ccc(-n2cc3c(-c4cccc(Br)c4)nnc(C)c3n2)cc1`, the IC50 in assay [1] is 1.48 µM; in assay [2], 13.5 µM.

`CC1CCCCN1CCNC(=O)Cn1nc(-c2ccccc2)ccc1=O` (centres undefined): the IC50 was > 10 µM (inactive) in assay [1] and greater than 10 µM in assay [2].

On to `O=S(=O)(c1ccc(Cl)cc1)N1CCN(C2CCN(Cc3ccccc3)CC2)CC1`, for which the IC50 in assay [1] was > 10 µM (inactive); in assay [2] it was greater than 10 µM.

Take `Cc1ccc(C(C)C)c(OCCCN2CC(C)OC(C)C2)c1` (centres undefined): the IC50 was > 10 µM (inactive) in assay [1] and greater than 10 µM in assay [2].

`Cc1c(C)c2cc(Cl)c(O)c(CN3CCN(C)CC3)c2oc1=O`: the values for the IC50 in assay [1] and in assay [2] were > 10 µM (inactive) and greater than 10 µM, respectively.

With `Fc1ccc(Cn2nnc(-c3ccc(CN4CCOCC4)cc3)n2)cc1`, the IC50 in assay [1] was > 10 µM (inactive); in assay [2] it was greater than 10 µM.

For `COc1ccc(/C=C2\SC(=S)N(NC(=O)c3csc4c3CCCC4)C2=O)cc1`, the IC50 in assay [1] is > 10 µM (inactive); in assay [2] it was greater than 10 µM.

For the molecule `CC(=O)c1cnc2nc(C)nn2c1C`, the IC50 in assay [1] is > 10 µM (inactive); in assay [2], greater than 10 µM.

With `COc1cc(CN2CCN(c3ccc(C)cc3)CC2)cc([N+](=O)[O-])c1O`, the IC50 in assay [1] was > 10 µM (inactive); in assay [2] it was greater than 10 µM.

Regarding `CC(NC(=O)CSc1nc2c(cc1C#N)CN(C)CC2)c1ccccc1` (centres undefined), the IC50 in assay [1] is > 10 µM (inactive); in assay [2], greater than 10 µM.

As for `O=C(CCC(=O)OCC(=O)c1ccc(F)cc1)NC1CCCCC1`, the results for the IC50 in assay [1] and in assay [2] were > 10 µM (inactive) and greater than 10 µM, respectively.

Turning to `CCOC(=O)C(NC(C)=O)(Nc1ccc(S(=O)(=O)Nc2onc(C)c2C)cc1)C(F)(F)F` (centres undefined), the IC50 in assay [1] is > 10 µM (inactive); in assay [2], greater than 10 µM.

For the molecule `CCCCCOc1ccc(CN2CCOCC2)cc1Cl`, the IC50 in assay [1] was > 10 µM (inactive); in assay [2], greater than 10 µM.

For `CCCC(=O)N1CCN(c2ccc(NC(=O)c3cc4ccccc4o3)cc2Cl)CC1`, the IC50 in assay [1] was > 10 µM (inactive); in assay [2], 19.2 µM.

As to `Clc1ccc2[nH]c3c(NCC4CCCO4)ncnc3c2c1` (centres undefined), the results for the IC50 in assay [1] and in assay [2] were > 10 µM (inactive) and greater than 10 µM, respectively.

As to `Cc1cc(C)c2c(c1)/C(=C/C(=O)c1ccc(Br)s1)C(=O)N2`, the IC50 in assay [1] was 3.71 µM (inactive); in assay [2], 1.42 µM.

For `CC1CN(CC(O)COc2ccc(C(C)C)cc2)CC(C)O1` (centres undefined), the IC50 in assay [1] is > 10 µM (inactive); in assay [2], greater than 10 µM.

Consider `CCN(CC)c1ccc(CN2CC=C(c3ccc(F)cc3)CC2)cc1`, for which the IC50 in assay [1] is > 10 µM (inactive); in assay [2], 25.8 µM.

`O=C(COc1ccc(Br)cc1F)NC1CCN(Cc2ccccc2)CC1`: the values for the IC50 in assay [1] and in assay [2] were > 10 µM (inactive) and greater than 10 µM, respectively.
